Columns and labels:
[1] = biological target: T1, H390A-LRH-1 (Homo sapiens, UniProt O00482, H390A); set-up: method as in PMID 27694446; settings: cited from earlier work
T1 construct: expressed in transfected cells; host or cells: Hela cells

[2] = biological target: T2, Liver receptor homolog-1 (LRH-1) ligand binding domain (UniProt O00482 299-541); assay: crystal structure; LRH-1 LBD (His-tag cleaved) saturated with SS-RJW100, combined with the Tif2 NR Box 3 peptide, 6 mg/ml; hanging drop vapor diffusion at 18 °C with microseeding; 0.05 M sodium acetate pH 4.6, 5–11% PEG4000; settings: both partners purified
T2 construct: also called LRH-1 LBD
T2 sequence (O00482 299-541): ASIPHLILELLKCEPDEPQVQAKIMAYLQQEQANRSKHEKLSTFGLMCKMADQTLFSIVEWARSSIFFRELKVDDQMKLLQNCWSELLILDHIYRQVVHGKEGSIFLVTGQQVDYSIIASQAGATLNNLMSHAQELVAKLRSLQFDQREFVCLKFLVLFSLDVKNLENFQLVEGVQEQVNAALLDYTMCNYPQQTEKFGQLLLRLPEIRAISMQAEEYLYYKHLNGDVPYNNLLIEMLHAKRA

T1 sequence (O00482 whole entry H390A): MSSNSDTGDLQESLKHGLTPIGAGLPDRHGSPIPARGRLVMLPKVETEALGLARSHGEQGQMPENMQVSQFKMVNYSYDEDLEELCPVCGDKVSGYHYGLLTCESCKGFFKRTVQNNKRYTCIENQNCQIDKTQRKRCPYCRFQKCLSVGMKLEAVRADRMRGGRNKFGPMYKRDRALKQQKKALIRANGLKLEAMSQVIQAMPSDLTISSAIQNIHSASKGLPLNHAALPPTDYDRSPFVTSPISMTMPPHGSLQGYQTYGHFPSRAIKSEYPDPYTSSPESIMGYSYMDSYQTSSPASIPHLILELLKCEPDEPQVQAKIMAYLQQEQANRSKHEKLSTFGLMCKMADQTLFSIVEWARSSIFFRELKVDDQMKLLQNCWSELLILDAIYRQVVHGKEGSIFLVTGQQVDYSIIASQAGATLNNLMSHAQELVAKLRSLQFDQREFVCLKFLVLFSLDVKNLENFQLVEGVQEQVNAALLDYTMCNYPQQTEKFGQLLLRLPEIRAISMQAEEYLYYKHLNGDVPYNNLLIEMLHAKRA

CCC/C=C(\CCC)C1=C(c2ccccc2)[C@]2(Nc3ccccc3)CCC[C@@H]2C1 [GSK8470]
activation of H390A-LRH-1 [1]: cannot activate

B1: peptide corresponding to the NR Box 3 of the Tif2 coactivator (peptide)
peptide: KENALLRYLLDKDDT
notes: source: synthetic peptide (RS Synthesis)
binding result [2]: binds
